Experimental data as given in patent US7058616B1, “Method and system for predicting resistance of a disease to a therapeutic agent using a neural network” (Virco Bvba, priority 2000, dated 2006).

Test system: HIV-1
Test: MT-4 cell viral cytopathic effect protection assay, phenotypic susceptibility of patient recombinant virus
Format: cell-based
Method: Phenotypic susceptibility was determined using a MT-4 cell viral cytopathic effect protection assay. See, e.g., Kashiwase et al., Chemotherapy 45(1):48–55 (1999), expressly incorporated herein by reference; Larder et al., Antimicrob. Agents Chemother. 43(8):1961–1967 (1999).

[1] = Table 13/14 sample 7: 71V,73S,90M, 20I,63P

Nc1ccn([C@H]2CC[C@@H](CO)O2)c(=O)n1 [DDC]
actual phenotype resistance level (Table 3 testing sample 1): S/S (A fold resistance of less than or equal to 4 is considered to be “sensitive,”)
actual phenotype resistance level (Table 3 testing sample 2): S/S (A fold resistance of less than or equal to 4 is considered to be “sensitive,”)
actual phenotype resistance level (Table 3 testing sample 3): S/S (A fold resistance of less than or equal to 4 is considered to be “sensitive,”)
actual phenotype resistance level (Table 3 testing sample 4): S/S (A fold resistance of less than or equal to 4 is considered to be “sensitive,”)
actual phenotype resistance level (Table 3 testing sample 5): S/S (A fold resistance of less than or equal to 4 is considered to be “sensitive,”)
actual phenotype resistance level (Table 3 testing sample 6): I (greater than 4 and less than 10 is considered to be “intermediate,”)
actual phenotype resistance level (Table 3 testing sample 7): S/S (A fold resistance of less than or equal to 4 is considered to be “sensitive,”)
actual phenotype resistance level (Table 3 testing sample 8): S (A fold resistance of less than or equal to 4 is considered to be “sensitive,”)
actual phenotype resistance level (Table 3 testing sample 9): S/S (A fold resistance of less than or equal to 4 is considered to be “sensitive,”)
actual phenotype resistance level (Table 3 testing sample 10): S/S (A fold resistance of less than or equal to 4 is considered to be “sensitive,”)

Cc1c(O)cccc1C(=O)N[C@@H](CSc1ccccc1)[C@H](O)CN1C[C@H]2CCCC[C@H]2C[C@H]1C(=O)NC(C)(C)C [Nelfinavir]
actual phenotype resistance level (PI test sample 2): R/R (if the value is greater than 10, it is considered to be ‘resistant’)
actual phenotype resistance level (PI test sample 3): R/R (if the value is greater than 10, it is considered to be ‘resistant’)
actual phenotype resistance level (PI test sample 4): R/R (if the value is greater than 10, it is considered to be ‘resistant’)
actual phenotype resistance level (PI test sample 5): R/R (if the value is greater than 10, it is considered to be ‘resistant’)
actual phenotype resistance level (PI test sample 7): R/R (if the value is greater than 10, it is considered to be ‘resistant’)
actual phenotype resistance level (PI test sample 8): R/R (if the value is greater than 10, it is considered to be ‘resistant’)
actual phenotype resistance level (PI test sample 9): R/R (if the value is greater than 10, it is considered to be ‘resistant’)
actual phenotype resistance level (PI test sample 10): R (if the value is greater than 10, it is considered to be ‘resistant’)
actual phenotype resistance level (PI test sample 11): I/I (greater than 4 and less than 10 is considered to be ‘intermediate’)
actual phenotype resistance level (PI test sample 13): R/R (if the value is greater than 10, it is considered to be ‘resistant’)
actual phenotype resistance level (PI test sample 14): R/R (if the value is greater than 10, it is considered to be ‘resistant’)
actual phenotype resistance level (PI test sample 15): R/R (if the value is greater than 10, it is considered to be ‘resistant’)
actual phenotype resistance level (PI test sample 16): R/R (if the value is greater than 10, it is considered to be ‘resistant’)
actual phenotype resistance level (PI test sample 17): R/R (if the value is greater than 10, it is considered to be ‘resistant’)
actual phenotype resistance level (PI test sample 18): R/R (if the value is greater than 10, it is considered to be ‘resistant’)
actual phenotype resistance level (PI test sample 19): R (if the value is greater than 10, it is considered to be ‘resistant’)
actual phenotype resistance level (PI test sample 19, listed as NFV): R/R (if the value is greater than 10, it is considered to be ‘resistant’)
actual phenotype resistance level (PI test sample 20): R/R (if the value is greater than 10, it is considered to be ‘resistant’)
actual phenotype resistance level (PI test sample 21): R/R (if the value is greater than 10, it is considered to be ‘resistant’)
actual phenotype resistance level (PI test sample 22): R (if the value is greater than 10, it is considered to be ‘resistant’)
actual phenotype resistance level (PI test sample 23): R/R (if the value is greater than 10, it is considered to be ‘resistant’)
actual phenotype resistance level (PI test sample 24): R/R (if the value is greater than 10, it is considered to be ‘resistant’)
actual phenotype resistance level (PI test sample 25): R/R (if the value is greater than 10, it is considered to be ‘resistant’)
actual phenotype resistance level (PI test sample 26): R/R (if the value is greater than 10, it is considered to be ‘resistant’)
actual phenotype resistance level (PI test sample 32): R/R (if the value is greater than 10, it is considered to be ‘resistant’)
actual phenotype resistance level (PI test sample 33): R/R (if the value is greater than 10, it is considered to be ‘resistant’)
actual phenotype resistance level (PI test sample 34): R/R (if the value is greater than 10, it is considered to be ‘resistant’)
actual phenotype resistance level (PI test sample 35): R/R (if the value is greater than 10, it is considered to be ‘resistant’)
actual phenotype resistance level (PI test sample 36): R/R (if the value is greater than 10, it is considered to be ‘resistant’)
actual phenotype resistance level (PI test sample 37): R/R (if the value is greater than 10, it is considered to be ‘resistant’)
actual phenotype resistance level (PI test sample 38): R/R (if the value is greater than 10, it is considered to be ‘resistant’)
actual phenotype resistance level (PI test sample 39): R/R (if the value is greater than 10, it is considered to be ‘resistant’)
actual phenotype resistance level (PI test sample 40): R/R (if the value is greater than 10, it is considered to be ‘resistant’)
actual phenotype resistance level (PI test sample 41): R/R (if the value is greater than 10, it is considered to be ‘resistant’)
actual phenotype resistance level (PI test sample 42): I/I (greater than 4 and less than 10 is considered to be ‘intermediate’)
actual phenotype resistance level (PI test sample 44): R/R (if the value is greater than 10, it is considered to be ‘resistant’)
actual phenotype resistance level (PI test sample 45): R/R (if the value is greater than 10, it is considered to be ‘resistant’)
actual phenotype resistance level (Table 3 testing sample 1): S/S (A fold resistance of less than or equal to 4 is considered to be “sensitive,”)
actual phenotype resistance level (Table 3 testing sample 4): R/R (if the value is greater than 10, it is considered to be “resistant.”)
actual phenotype resistance level (Table 3 testing sample 5): R/R (if the value is greater than 10, it is considered to be “resistant.”)
actual phenotype resistance level (Table 3 testing sample 6): R/R (if the value is greater than 10, it is considered to be “resistant.”)
actual phenotype resistance level (Table 3 testing sample 7): S/S (A fold resistance of less than or equal to 4 is considered to be “sensitive,”)
actual phenotype resistance level (Table 3 testing sample 8): R/R (if the value is greater than 10, it is considered to be “resistant.”)
actual phenotype resistance level (Table 3 testing sample 10): R/R (if the value is greater than 10, it is considered to be “resistant.”)
actual phenotype (Table 13/14 sample 1: 10I,71V,73S,84V,90M, 63P,85V,93L): R (if the value is greater than 10, it is considered to be ‘resistant’)
actual phenotype (Table 13/14 sample 3: 10I, 36V,93L): R (if the value is greater than 10, it is considered to be ‘resistant’)
actual phenotype (Table 13/14 sample 5: 10V,30N, 13V,63P): R (if the value is greater than 10, it is considered to be ‘resistant’)
actual phenotype [1]: R (if the value is greater than 10, it is considered to be ‘resistant’)
actual phenotype (Table 13/14 sample 10: 46I,71V,73S,90M, 20I,63P,93L): R (if the value is greater than 10, it is considered to be ‘resistant’)
actual phenotype (Table 13/14 sample 18: 36I,71T,90M, 63P,93L): R (if the value is greater than 10, it is considered to be ‘resistant’)
actual phenotype (Table 13/14 sample 20: 77I,88S, 13V, 63P, 93L): R (if the value is greater than 10, it is considered to be ‘resistant’)

Nc1nc(NC2CC2)c2ncn([C@H]3C=C[C@@H](CO)C3)c2n1 [1592 U89]
actual phenotype resistance level (Table 3 testing sample 1): S/S (A fold resistance of less than or equal to 4 is considered to be “sensitive,”)
actual phenotype resistance level (Table 3 testing sample 2): S (A fold resistance of less than or equal to 4 is considered to be “sensitive,”)
actual phenotype resistance level (Table 3 testing sample 3): S/S (A fold resistance of less than or equal to 4 is considered to be “sensitive,”)
actual phenotype resistance level (Table 3 testing sample 4): S/S (A fold resistance of less than or equal to 4 is considered to be “sensitive,”)
actual phenotype resistance level (Table 3 testing sample 5): S/S (A fold resistance of less than or equal to 4 is considered to be “sensitive,”)
actual phenotype resistance level (Table 3 testing sample 6): I (greater than 4 and less than 10 is considered to be “intermediate,”)
actual phenotype resistance level (Table 3 testing sample 7): S/S (A fold resistance of less than or equal to 4 is considered to be “sensitive,”)
actual phenotype resistance level (Table 3 testing sample 8): I (greater than 4 and less than 10 is considered to be “intermediate,”)
actual phenotype resistance level (Table 3 testing sample 9): S/S (A fold resistance of less than or equal to 4 is considered to be “sensitive,”)
actual phenotype resistance level (Table 3 testing sample 10): S/S (A fold resistance of less than or equal to 4 is considered to be “sensitive,”)

CC(C)c1nc(CN(C)C(=O)N[C@H](C(=O)N[C@@H](Cc2ccccc2)C[C@H](O)[C@H](Cc2ccccc2)NC(=O)OCc2cncs2)C(C)C)cs1 [Ritonavir]
actual phenotype (Table 13/14 sample 2: 10I,46I,48V,77I,82A,90M, 10E,58E,63T): S (A fold resistance of less than or equal to 4 is considered to be ‘sensitive’)
actual phenotype (Table 13/14 sample 6: 10I,48V,54V,82A, 13V): R (if the value is greater than 10, it is considered to be ‘resistant’)
actual phenotype [1]: I (greater than 4 and less than 10 is considered to be ‘intermediate’)
actual phenotype (Table 13/14 sample 14: 10I,46I,71T,77I,90M, 57K,63P,93L): S (A fold resistance of less than or equal to 4 is considered to be ‘sensitive’)
actual phenotype (Table 13/14 sample 17: 46I,77I,90M, 10F,20L,63P): I (greater than 4 and less than 10 is considered to be ‘intermediate’)
